Data from article PMC9154803, “Synthesis, X-ray diffraction analysis, quantum chemical studies and α-amylase inhibition of probenecid derived S-alkylphthalimide-oxadiazole-benzenesulfonamide hybrids” (Journal of Enzyme Inhibition and Medicinal Chemistry, 2022).
Converted amounts (≈) assume the structure as drawn.

Molecular target: T1, α-amylase
T1 construct: gene AMY2
Assay: DNS starch hydrolysis assay, absorbance at […] nm
Format: biochemical

## CCCN(CCC)S(=O)(=O)c1ccc(-c2nnc(SCCCCN3C(=O)c4ccccc4C3=O)o2)cc1 [compound 2, 4–(5-(4–(1,3-Dioxoisoindolin-2-yl)butylthio)-1,3,4-oxadiazol-2-yl)-N,N-dipropylbenzenesulfonamide]
  IC50 value: 76.92 ± 0.19 µg/mL (≈ 142 µM)

## CCCN(CCC)S(=O)(=O)c1ccc(-c2nnc(SCCCN3C(=O)c4ccccc4C3=O)o2)cc1 [compound 1, 4–(5-(3–(1,3-Dioxoisoindolin-2-yl)propylthio)-1,3,4-oxadiazol-2-yl)-N,N-dipropylbenzenesulfonamide]
  IC50 value: 92.23 ± 0.23 µg/mL (≈ 174 µM)
